Data on 5 molecules can be found in patent US9540314B2, “N-cycloalkyl-N-[(cycloalkenylphenyl)methylene]-(thio) carboxamide derivatives” (BAYER INTELLECTUAL PROPERTY GMBH, priority 2012, dated 2017).

As a reminder, the logP is the decadic logarithm of the partition coefficient of the neutral form, usually between octanol and water.

A short description of data set [1]: log P by HPLC on a reversed-phase column (C 18), EEC Directive 79/831 Annex V.A8. It is filed as physicochemical. As to conditions: Table 1; HPLC C 18, 40° C., 0.1% aqueous formic acid and acetonitrile; several values = mixture of 2 or more isomers. As to the method:
In table 1, the log P values were determined in accordance with EEC Directive 79/831 Annex V.A8 by HPLC (High Performance Liquid Chromatography) on a reversed-phase column (C 18), using the method described below:
Temperature: 40° C.; Mobile phases: 0.1% aqueous formic acid and acetonitrile; linear gradient from 10% acetonitrile to 90% acetonitrile.
Calibration was carried out using unbranched alkan-2-ones (comprising 3 to 16 carbon atoms) with known log P values (determination of the log P values by the retention times using linear interpolation between two successive alkanones). lambda-max-values were determined using UV-spectra from 200 nm to 400 nm and the peak values of the chromatographic signals.

The subject of the next data set is Sphaerotheca fuliginea. Briefly: In vivo preventive test on Sphaerotheca fuliginea (powdery mildew on cucurbits). As to conditions: 500 ppm, gherkin plants, grading 12 days after contamination. As to the method: (§1) The active ingredients tested are prepared by homogenization in a mixture of acetone/tween/DMSO and then diluted with water to obtain the desired active material concentration.
Gherkin plants (“Vert petit de Paris” variety), sown in starter cups on a 50/50 peat soil-pozzolana substrate and grown at 24° C., are treated at the Z11 cotyledon stage by spraying with the active ingredient prepared as described above. Plants, used as controls, are treated with the mixture of acetone/tween/DMSO/water not containing the active material.
After 24 hours, the plants are contaminated by spraying the cotyledons with an aqueous suspension of Sphaerotheca fuliginea spores (100 000 spores per mL). The spores are collected from infected plants. The contaminated gherkin plants are incubated at about 20° C. and at 70-80% relative humidity.
(§2) Grading (% of efficacy) is carried out 12 days after the contamination, in comparison with the control plants.
Under these conditions, good (at least 70%) to total protection is observed at a dose of 500 ppm of active ingredient with the following compounds from table A: […]

A further data set relates to Alternaria brassicae. Briefly: In vivo preventive test on Alternaria brassicae (leaf spot on radish). The following applies: radish plants. How it is done:
(§3) The active ingredients tested are prepared by homogenization in a mixture of acetone/tween/DMSO, and then diluted with water to obtain the desired active material concentration.
Radish plants (“Pernod Clair” variety), sown in starter cups on a 50/50 peat soil pozzolana substrate and grown at 17° C., are treated at the cotyledon stage by spraying with the active ingredient prepared as described above. Plants, used as controls, are treated with the mixture of acetone/tween/DMSO/water not containing the active material.
After 24 hours, the plants are contaminated by spraying the cotyledons with an aqueous suspension of Alternaria brassicae spores (50 000 spores per mL). The spores are collected from a 15-day-old culture.
The contaminated radish plants are incubated at 20° C. and at 100% relative humidity.
Grading (% of efficacy) is carried out 6 days after the contamination, in comparison with the control plants.
Under these conditions, high (at least 80%) to excellent (at least 90%) protection is observed at a dose of 500 ppm of active ingredient with the following compounds from table C1: […]

In another data set the test system is Pyrenophora teres. The data set can be described thus: In vivo preventive test on Pyrenophora teres (barley). As to conditions: 500 ppm of active ingredient; barley plants, preventive spray; grading 14 days after contamination. As to the method: as §3
Barley plants (“Plaisant” variety), sown in starter cups on a 50/50 peat soil pozzolana substrate and grown at 22° C., are treated at the 1 leaf stage (10 cm height) by spraying with the active ingredient prepared as described above. Plants, used as controls, are treated with the mixture of acetone/tween/DMSO/water not containing the active material.
After 24 hours, the plants are contaminated by spraying the leaves with an aqueous suspension of Pyrenophora teres spores (12 000 spores per mL). The spores are collected from a 12-day-old culture.
The contaminated barley plants are incubated for 48 hours at 20° C. and at 100% relative humidity, and then for 12 days at 20° C. at 70-80% relative humidity.
Grading (% of efficacy) is carried out 14 days after the contamination, in comparison with the control plants.
Under these conditions, good (at least 70%) to total protection is observed at a dose of 500 ppm of active ingredient with the following compounds from table H1: […]

The test system of a further data set is Puccinia recondita. Briefly: In vivo preventive test on Puccinia recondita (brown rust on wheat). The following applies: 500 ppm of active ingredient; wheat plants, preventive spray; grading 12 days after contamination. How it is done: as §3
(§4) Wheat plants (“Scipion” variety), sown in starter cups on a 50/50 peat soil pozzolana substrate and grown at 22° C., are treated at the 1 leaf stage (10 cm height) by spraying with the active ingredient prepared as described above. Plants, used as controls, are treated with the mixture of acetone/tween/DMSO/water not containing the active material.
After 24 hours, the plants are contaminated by spraying the leaves with an aqueous suspension of Puccinia recondita spores (100 000 spores per mL). The spores are collected from an infected plant and are suspended in water containing 2.5 mL/L of Tween 80 at 10%. The contaminated wheat plants are incubated for 24 hours at 20° C. and at 100% relative humidity, and then for 10 days at 20° C. and at 70-80% relative humidity.
as §2
Under these conditions, good (at least 70%) to total protection is observed at a dose of 500 ppm of active ingredient with the following compounds from table I: […]

The test system of another data set is Septoria tritici. The data set can be described thus: In vivo preventive test on Septoria tritici (wheat). The following applies: 500 ppm of active ingredient; wheat plants, preventive spray; grading 24 days after contamination. How it is done:
as §3, §4
After 24 hours, the plants are contaminated by spraying the leaves with an aqueous suspension of cryopreserved Septoria tritici spores (500 000 spores per mL). The contaminated wheat plants are incubated for 72 hours at 18° C. and at 100% relative humidity, and then for 21 days at 90% relative humidity.
Grading (% of efficacy) is carried out 24 days after the contamination, in comparison with the control plants.
Under these conditions, good (at least 70%) to total protection is observed at a dose of 500 ppm of active ingredient with the following compounds from table J: […]

The next data set has as its system Uromyces appendiculatus. The data set can be described thus: In vivo preventive test on Uromyces appendiculatus (bean rust). As to conditions: 500 ppm of active ingredient; bean plants, preventive spray; grading 11 days after contamination (table K1). As to the method: as §3
After 24 hours, the plants are contaminated by spraying the leaves with an aqueous suspension of Uromyces appendiculatus spores (150 000 spores per mL). The spores are collected from infected plants and are suspended in water containing 2.5 mL/L of Tween 80 at 10%. The contaminated bean plants are incubated for 24 hours at 20° C. and at 100% relative humidity, and then for 10 days at 20° C. and at 70-80% relative humidity.
Grading (% of efficacy) is carried out 11 days after the contamination, in comparison with the control plants.

In the next data set the test system is Botrytis cinerea. Briefly: In vivo preventive test on Botrytis cinerea (grey mould), gherkin plants. The following applies: 500 ppm of active ingredient, preventive spray, grading 4 to 5 days after contamination. How it is done: as §1
Gherkin plants (“Vert petit de Paris” variety), sown in starter cups on a 50/50 peat soil pozzolana substrate and grown at 24° C., are treated at the Z11 cotyledon stage by spraying with the active ingredient prepared as described above. Plants, used as controls, are treated with the mixture of acetone/tween/DMSO/water not containing the active material.
After 24 hours, the plants are contaminated by spraying the cotyledons with an aqueous suspension of cryopreserved Botrytis cinerea spores (50 000 spores per mL). The spores are suspended in a nutrient solution composed of 10 g/L of PDB, 50 g/L of D-Fructose, 2 g/L of NH4NO3 and 1 g/L of KH2PO4. The contaminated gherkin plants are incubated at 17° C. and at 90% relative humidity.
Grading (% of efficacy) is carried out 4 to 5 days after the contamination, in comparison with the control plants.
Under these conditions, good (at least 70%) to total protection is observed at a dose of 500 ppm of active ingredient with the following compounds from table F: […]

The mark [2] stands for this setting: Table C1, 500 ppm, grading 6 days after contamination.

With `CC1CC=C(c2ccccc2C(C)N(C(=O)c2c(C(F)F)nn(C)c2F)C2CC2)CC1` (mixture of isomers) [I.45], in data set [1], the logP came out at 5.03. Besides, the Efficacy with Sphaerotheca fuliginea is 100%; in the data set on Alternaria brassicae (setting [2]), 98%; in the data set with Pyrenophora teres, 97%; in the data set with Puccinia recondita, 81%; in the data set on Septoria tritici, 100%; with Uromyces appendiculatus, 75%.
Take `CC(c1ccccc1C1=CCCCC1)N(C(=O)c1c(C(F)F)nn(C)c1F)C1CC1` (racemic) [I.32]: the log partition coefficient (logP) in data set [1] is listed as 4.61. The Efficacy with Sphaerotheca fuliginea is on record as 100%; in the data set with Alternaria brassicae (setting [2]), 98%; in the data set on Alternaria brassicae (Table C2, dose 100 ppm, 6 days after contamination) it was 98%; in the data set with Alternaria brassicae (Table C2, dose 100 ppm, 6 days after contamination, listed as 1.32), “at least 95%”; with Alternaria brassicae (Table C2, dose 500 ppm, 6 days after contamination), 98%; in the data set on Alternaria brassicae (Table C2, dose 500 ppm, 6 days after contamination, listed as 1.32), “at least 95%”. The Efficacy with Pyrenophora teres was found to be 97%; in the data set with Puccinia recondita, 98%; in the data set with Septoria tritici it was 100%.
Consider `Cn1nc(C(F)F)c(C(=O)N(Cc2c(C(F)(F)F)ccc(C3=CCCC3)c2F)C2CC2)c1F` [I.7], for which the lipophilicity (logP) in data set [1] amounted to 4.81. The Efficacy is 100% in the data set with Sphaerotheca fuliginea; 80% in the data set on Alternaria brassicae (setting [2]); 86% in the data set with Pyrenophora teres; 81% in the data set with Puccinia recondita; 97% with Septoria tritici; 98% with Uromyces appendiculatus.
Take `Cn1nc(C(F)F)c(C(=O)N(Cc2c(C3=CCCC3)ccc(F)c2F)C2CC2)c1F` [I.19]: the logP in data set [1] is 4.11. Besides, the Efficacy with Sphaerotheca fuliginea amounted to 100%; in the data set on Alternaria brassicae (setting [2]), 96%; in the data set with Pyrenophora teres it was 93%; in the data set on Puccinia recondita, 98%; in the data set with Septoria tritici it was 97%; with Uromyces appendiculatus, 100%.
Turning to `Cn1nc(C(F)F)c(C(=O)N(Cc2ccccc2C2=CCCCCC2)C2CC2)c1F` [I.53], in data set [1], the logP was 4.85. The Efficacy in the data set on Sphaerotheca fuliginea is 100%; with Botrytis cinerea it was 100%; with Pyrenophora teres, 79%; with Puccinia recondita it was 98%; with Septoria tritici, 100%; in the data set with Uromyces appendiculatus it was 100%.
